Experiment [1] addresses T1, CHLαGcT (cholesterol α-glucosyltransferase; HP0421) (Helicobacter pylori, UniProt O25175). The experiment in a line: glucosyltransferase inhibition assay. The experiment is classed as biochemical. The note with it: UDP-Glc 3.6 μM, cholesterol 400 μM (so in the source); cited from earlier work.
The target of experiment [2] is T1, CHLαGcT (cholesterol α-glucosyltransferase; HP0421). The experiment in a line: product inhibition, Lineweaver-Burk. The experiment is classed as biochemical. The note with it: varied UDP-Glc; competitive with UDP-Glc.

Turning to `CC(=O)N[C@H]1[C@@H](Oc2ccc([N+](=O)[O-])cc2)O[C@H](CO)[C@H](O)[C@@H]1O[C@@H]1O[C@H](CO)[C@H](O)[C@H](O)[C@H]1O` [Galβ1→3GalNAcα1→p-nitrophenol], the IC50 in experiment [1] was 7490 µM.

`CCCCCCCCO[C@H]1O[C@H](CO[C@@H]2O[C@H](CO)[C@@H](O[C@@H]3O[C@H](CO)[C@H](O[C@H]4O[C@H](CO)[C@@H](O)[C@H](O)[C@H]4NC(C)=O)[C@H](O)[C@H]3O)[C@H](O)[C@H]2NC(C)=O)[C@H](O)[C@H](O[C@@H]2O[C@H](CO)[C@H](O)[C@H](O)[C@H]2O)[C@H]1NC(C)=O` [GlcNAcα1→4Galβ1→4GlcNAcβ1→6(Galβ1→3)GalNAcα1→octyl]: the IC50 in experiment [1] was 470 µM.

Take `CC(=O)N[C@H]1[C@H](OC[C@H]2O[C@H](Oc3ccc([N+](=O)[O-])cc3)[C@H](NC(C)=O)[C@@H](O[C@@H]3O[C@H](CO)[C@H](O)[C@H](O)[C@H]3O)[C@H]2O)O[C@H](CO)[C@@H](O)[C@@H]1O` [GlcNAcβ1→6(Galβ1→3)GalNAcα1→p-nitrophenol]: in experiment [1], the IC50 was 2210 µM.

In the case of `CCCCCCCCO[C@H]1O[C@H](CO)[C@H](O)[C@H](O[C@@H]2O[C@H](CO)[C@H](O)[C@H](O[C@]3(C(=O)O)C[C@H](O)[C@@H](NC(C)=O)[C@H]([C@H](O)[C@H](O)CO)O3)[C@H]2O)[C@H]1NC(C)=O` [NeuAcα2→3Galβ1→3GalNAcα1→octyl], the IC50 in experiment [1] was 1090 µM.

Regarding `O=c1ccn([C@@H]2O[C@H](COP(=O)(O)OP(=O)(O)O)[C@@H](O)[C@H]2O)c(=O)[nH]1` [UDP], the “product inhibition, Lineweaver-Burk” value in experiment [2] is “inhibition profile of UDP in the presence of UDP-Glc intersected at the Y-axis, indicating competitive inhibition”.

Broadly, the IC50 is the concentration that inhibits the measured activity by half.
